# Measurements from US3954840A, “1,3,5,7-Naphthalenetetracarboxylic acids and process for preparation thereof” (Teijin Ltd., priority 1973, dated 1976).
# Several values for one entry are separate records, joined by “and”; a condition that tells them apart may be missing. Equal entries are not always repeated. Entries after “also recorded” stand apart in the source; their conditions may differ. Where two headings read alike, the source gives them in different places.
# Columns and labels:
# [1] = Stability in water / acid; format: physicochemical
# Thermal stability = format: physicochemical
# Solubility in words = format: physicochemical; details: for Solubility in aqueous medium: aqueous medium (acid precipitation / disproportionation)
# [2] = Solubility of potassium salts in water/methanol mixtures at 30°C (Table 4); format: physicochemical
# [3] = Solubility of potassium naphthalenecarboxylates in pure water and in aqueous K4 XA solution (Table 1); format: physicochemical; details: 30% aqueous k4xa
# From the text: Generally, alkali metal naphthalenecarboxylates, taken individually, are easily soluble in a sufficient amount of water.
# [4] = Solubility of K4 XA in aqueous potassium carbonate (Table 3); format: physicochemical; details: water
# [5] = 30°C
smiles,measurement,setting,value
O=C([O-])c1cc(C(=O)[O-])c2cc(C(=O)O)cc(C(=O)[O-])c2c1.[K+].[K+].[K+],Stability in water,[1],Easily decomposable
"O=C(O)c1cc(C(=O)O)c2cc(C(=O)O)cc(C(=O)O)c2c1 [1,3,5,7-naphthalenetetracarboxylic acid]",Thermal stability,Thermal stability; high temperatures (melting point above 300°C),decomposed
same,Solubility in alcohols,Solubility in words; alcohols,Insoluble
same,Solubility in aqueous medium,Solubility in words,very low solubility
same,Solubility in aqueous medium,Solubility in words; listed as H4 XA,almost insoluble
same,Solubility in benzene,Solubility in words,Insoluble
same,Solubility in ether(s),Solubility in words,Insoluble
same,Solubility in various solvents,Solubility in words; various solvents,very low solubility
same,Solubility in water,Solubility in words; water,Insoluble
"O.O.O=C([O-])c1cc(C(=O)[O-])c2cc(C(=O)[O-])cc(C(=O)[O-])c2c1.[K+].[K+].[K+].[K+] [Tetrapotassium 1,3,5,7-naphthalenetetracarboxylate dihydrate]",Amount of solute dissolved in 100 g of a mixture of water and methanol,"[2]; 30°C, methanol 0 wt. %",45 g
same,Amount of solute dissolved in 100 g of a mixture of water and methanol,"[2]; 30°C, methanol 40 wt. %",9 g
same,Amount of solute dissolved in 100 g of a mixture of water and methanol,"[2]; 30°C, methanol 60 wt. %",1.7 g
same,Amount of solute dissolved in 100 g of a mixture of water and methanol,"[2]; 30°C, methanol 80 wt. %",0.13 g
same,Amount of solute dissolved in 100 g of a mixture of water and methanol,"[2]; 30°C, methanol 100 wt. %",0.30 g
O=C([O-])c1ccc2cc(C(=O)[O-])ccc2c1.[K+].[K+],"Solubility in 100 g of a 30% by weight aqueous solution of tetrapotassium 1,3,5,7-naphthalenetetracarboxylate",[3],1.0 g
same,Change of solubility with increasing methanol concentration,[2],decrease with higher methanol concentrations but not to such a great extent as in the case of K4 XA
same,Amount of solute dissolved in 100 g of a mixture of water and methanol,"[2]; 30°C, methanol 40 wt. %",8.5 g
same,Amount of solute dissolved in 100 g of a mixture of water and methanol,"[2]; 30°C, methanol 60 wt. %",3.6 g
same,Amount of solute dissolved in 100 g of a mixture of water and methanol,"[2]; 30°C, methanol 80 wt. %",0.88 g
same,Amount of solute dissolved in 100 g of a mixture of water and methanol,"[2]; 30°C, methanol 100 wt. %",0.17 g
same,Amount of solute dissolved in 100 g of a mixture of water and methanol,[2]; water,32 g
"O=C([O-])c1cc(C(=O)[O-])c2cc(C(=O)[O-])cc(C(=O)[O-])c2c1.[Na+].[Na+].[Na+].[Na+] [tetrasodium 1,3,5,7-naphthalenetetracarboxylate]",Thermal stability,Thermal stability; around 400°C,stable
O=C([O-])c1ccc2ccccc2c1.[K+],"Solubility in 100 g of a 30% by weight aqueous solution of tetrapotassium 1,3,5,7-naphthalenetetracarboxylate",[3],0.3 g
same,Change of solubility with increasing methanol concentration,[2],decrease with higher methanol concentrations but not to such a great extent as in the case of K4 XA
same,Amount of solute dissolved in 100 g of a mixture of water and methanol,"[2]; 30°C, methanol 40 wt. %",45 g
same,Amount of solute dissolved in 100 g of a mixture of water and methanol,"[2]; 30°C, methanol 60 wt. %",30 g
same,Amount of solute dissolved in 100 g of a mixture of water and methanol,"[2]; 30°C, methanol 80 wt. %",19 g
same,Amount of solute dissolved in 100 g of a mixture of water and methanol,"[2]; 30°C, methanol 100 wt. %",9.3 g
same,Amount of solute dissolved in 100 g of a mixture of water and methanol,[2]; water,80 g
O=C([O-])c1cc(C(=O)[O-])c2cc(C(=O)[O-])cc(C(=O)[O-])c2c1.[K+].[K+].[K+].[K+],Solubility (grams of the potassium salt dissolved in 100 g of solvent),[4],57.0 g and 48.8 g
same,Change of solubility with increasing methanol concentration,[2],decreases abruptly
same,Thermal stability,Thermal stability,"almost no change occurred, but the product was stable"
same,Amount of tetrapotassium salt dissolved in 100 g of a mixture of water and methanol,"[5]; methanol 40%, K2CO3 0%",9.0 g
same,Amount of tetrapotassium salt dissolved in 100 g of a mixture of water and methanol,"[5]; methanol 40%, K2CO3 10%",3.8 g
same,Amount of tetrapotassium salt dissolved in 100 g of a mixture of water and methanol,"[5]; methanol 40%, K2CO3 20%",1.0 g
same,Amount of tetrapotassium salt dissolved in 100 g of a mixture of water and methanol,"[5]; methanol 40%, K2CO3 30%",0.2 g
same,Amount of tetrapotassium salt dissolved in 100 g of a mixture of water and methanol,"[5]; methanol 60%, K2CO3 0%",1.7 g
same,Amount of tetrapotassium salt dissolved in 100 g of a mixture of water and methanol,"[5]; methanol 60%, K2CO3 10%",0.1 g
same,Amount of tetrapotassium salt dissolved in 100 g of a mixture of water and methanol,"[5]; methanol 80%, K2CO3 0%",0.13 g
same,Amount of tetrapotassium salt dissolved in 100 g of a mixture of water and methanol,"[5]; methanol 80%, K2CO3 3%",< 0.01 g
same,Solubility in methanol,Solubility in words,slightly soluble
same,Solubility in water,Solubility in words,very high; also recorded: Readily soluble
O=C(O)c1cc(C(=O)O)c2cc(C(=O)O)cc(C(=O)[O-])c2c1.[K+],Solubility in water,Solubility in words,difficultly soluble
"CCCCOC(=O)c1cc(C(=O)OCCCC)c2cc(C(=O)OCCCC)cc(C(=O)OCCCC)c2c1 [tetra-n-butyl 1,3,5,7-naphthalenetetracarboxylate]",Solubility in chloroform,Solubility in words,Readily soluble
same,Solubility in ether(s),Solubility in words,Readily soluble
same,Solubility in hot ethanol,Solubility in words; hot ethanol,Readily soluble
"CCCCCCCCCCCCOC(=O)c1cc(C(=O)OCCCCCCCCCCCC)c2cc(C(=O)OCCCCCCCCCCCC)cc(C(=O)OCCCCCCCCCCCC)c2c1 [tetra-n-dodecyl 1,3,5,7-naphthalenetetracarboxylate]",Solubility in acetone,Solubility in words; acetone,Readily soluble
same,Solubility in benzene,Solubility in words,Readily soluble
same,Solubility in chloroform,Solubility in words,Readily soluble
same,Solubility in ether(s),Solubility in words,Readily soluble
